From patent publication US10428044B2, “3-amino-1,5,6,7-tetrahydro-4H-indol-4-ones” (Bayer Pharma Aktiengesellschaft, priority 2014, dated 2019)

Target: (recombinant) catalytic domain of human Bub1 (amino acids 704-1085) (Homo sapiens (Human), UniProt O43683)
Experiment: Bub1 kinase assay (TR-FRET)
Type: biochemical
Conditions: ATP 10 μM final, peptide substrate 1 μM final, 60 min at 22° C., read-out: Biological Assay: Bub1 kinase assay median IC50
In short: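 Compounds were serially diluted 1:3.4 from 2 mM DMSO stocks and incubated with the enzyme reaction for 60 min at 22° C. The reaction was stopped with EDTA, and biotinylated peptide phosphorylation was read by TR-FRET using Eu anti-mouse IgG, anti-phosphoserine antibody and streptavidin-XL665. IC50 was fitted by 4-parameter logistic to inhibition normalized to no-inhibitor and no-enzyme controls.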

Sequence of (recombinant) catalytic domain of human Bub1 (amino acids 704-1085) (O43683 704-1085): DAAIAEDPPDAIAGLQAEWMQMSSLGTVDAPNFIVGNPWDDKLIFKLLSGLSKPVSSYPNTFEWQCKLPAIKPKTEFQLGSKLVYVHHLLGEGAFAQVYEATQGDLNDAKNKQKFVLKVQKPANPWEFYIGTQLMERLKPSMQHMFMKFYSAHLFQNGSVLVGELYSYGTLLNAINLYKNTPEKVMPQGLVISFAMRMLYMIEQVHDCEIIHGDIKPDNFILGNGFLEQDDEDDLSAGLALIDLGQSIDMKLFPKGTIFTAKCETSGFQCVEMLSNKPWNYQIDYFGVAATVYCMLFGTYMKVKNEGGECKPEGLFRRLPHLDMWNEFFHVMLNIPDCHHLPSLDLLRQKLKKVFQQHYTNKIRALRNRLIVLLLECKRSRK

Structure (SMILES)	IC50 [nM]
Cc1cc(F)cc(Nc2c(-c3ccncc3)[nH]c3c2C(=O)CC(C)(C)C3)c1 [Example 14, 3-[(3-fluoro-5-methylphenyl)amino]-6,6-dimethyl-2-(pyridin-4-yl)-1,5,6,7-tetrahydro-4H-indol-4-one]	10.8
O=C1CCCc2[nH]c(-c3ccnc(NC(=O)C4CC4)c3)c(Nc3cccc(F)c3)c21 [Example 47, N-(4-{3-[(3-fluorophenyl)amino]-4-oxo-4,5,6,7-tetrahydro-1H-indol-2-yl}pyridin-2-yl)cyclopropanecarboxamide]	13.7
O=C(CCCc1ccccc1)Nc1cc(-c2[nH]c3c(c2Nc2ccccc2)C(=O)CCC3)ccn1 [Example 236, N-{4-[4-oxo-3-(phenylamino)-4,5,6,7-tetrahydro-1H-indol-2-yl]pyridin-2-yl}-4-phenylbutanamide]	8.26
O=C1CCCc2[nH]c(-c3ccncc3)c(Nc3cccc(F)c3)c21 [Example 41, 3-[(3-fluorophenyl)amino]-2-(pyridin-4-yl)-1,5,6,7-tetrahydro-4H-indol-4-one]	11.1
CC1(C)CC(=O)c2c([nH]c(-c3ccncc3)c2Nc2cccc(C3(C)OCCO3)c2)C1 [Example 153, 6,6-dimethyl-3-{[3-(2-methyl-1,3-dioxolan-2-yl)phenyl]amino}-2-(pyridin-4-yl)-1,5,6,7-tetrahydro-4H-indol-4-one]	11500
Nc1cc(-c2[nH]c3c(c2Nc2ccccc2)C(=O)CC2(CC2)C3)ccn1 [Example 206, 2′-(2-aminopyridin-4-yl)-3′-(phenylamino)-1′,7′-dihydrospiro[cyclopropane-1,6′-indol]-4′(5′H)-one]	9.73
CC(C(=O)Nc1cc(-c2[nH]c3c(c2Nc2ccccc2)C(=O)CCC3)ccn1)C(F)(F)F (centres unmarked) [Example 247, 3,3,3-trifluoro-2-methyl-N-{4-[4-oxo-3-(phenylamino)-4,5,6,7-tetrahydro-1H-indol-2-yl]pyridin-2-yl}propanamide]	81.3
CC1(C)CC(=O)c2c([nH]c(-c3ccnc(C#N)c3)c2Nc2ccccc2)C1 [Example 46, 4-[6,6-dimethyl-4-oxo-3-(phenylamino)-4,5,6,7-tetrahydro-1H-indol-2-yl]pyridine-2-carbonitrile]	29.1
CC(O)c1cccc(Nc2c(-c3ccncc3)[nH]c3c2C(=O)CC(C)(C)C3)c1 (centres unmarked) [Example 112, 3-{[3-(1-hydroxyethyl)phenyl]amino}-6,6-dimethyl-2-(pyridin-4-yl)-1,5,6,7-tetrahydro-4H-indol-4-one]	3480
CC1(C)CC(=O)c2c([nH]c(-c3ccncc3)c2Nc2ccc3ccoc3c2)C1 [Example 26, 3-(1-benzofuran-6-ylamino)-6,6-dimethyl-2-(pyridin-4-yl)-1,5,6,7-tetrahydro-4H-indol-4-one]	32.7
CCC(=O)Nc1cc(-c2[nH]c3c(c2Nc2ccccc2)C(=O)CCC3)ccn1 [Example 225, N-{4-[4-oxo-3-(phenylamino)-4,5,6,7-tetrahydro-1H-indol-2-yl]pyridin-2-yl}propanamide]	26.7
CC1(C)CC(=O)c2c([nH]c(-c3ccncc3)c2Nc2cccc(O)c2)C1 [Example 89, 3-[(3-hydroxyphenyl)amino]-6,6-dimethyl-2-(pyridin-4-yl)-1,5,6,7-tetrahydro-4H-indol-4-one]	288
CC1(C)CC(=O)c2c([nH]c(-c3ccncc3)c2Nc2cccc(C(C)(C)C)c2)C1 [Example 114, 3-[(3-tert-butylphenyl)amino]-6,6-dimethyl-2-(pyridin-4-yl)-1,5,6,7-tetrahydro-4H-indol-4-one]	8640
Cc1ccccc1Nc1c(-c2ccncc2)[nH]c2c1C(=O)CC(C)(C)C2 [Example 53, 6,6-dimethyl-3-[(2-methylphenyl)amino]-2-(pyridin-4-yl)-1,5,6,7-tetrahydro-4H-indol-4-one]	82.2
CC(C)C1CC(=O)c2c([nH]c(-c3ccncc3)c2Nc2ccccc2)C1 (single isomer, unassigned) [Example 18, 3-(phenylamino)-6-(propan-2-yl)-2-(pyridin-4-yl)-1,5,6,7-tetrahydro-4H-indol-4-one]	5.09

Continued, values first:

IC50 [nM]	Structure (SMILES)
12.7	O=C(Nc1cc(-c2[nH]c3c(c2Nc2ccccc2)C(=O)CCC3)ccn1)c1cocn1 [Example 278, N-{4-[4-oxo-3-(phenylamino)-4,5,6,7-tetrahydro-1H-indol-2-yl]pyridin-2-yl}-1,3-oxazole-4-carboxamide]
9.3	COc1cnccc1-c1[nH]c2c(c1Nc1ccccc1)C(=O)CC(C)(C)C2 [Example 403, 2-(3-methoxypyridin-4-yl)-6,6-dimethyl-3-(phenylamino)-1,5,6,7-tetrahydro-4H-indol-4-one]
22.7	O=C(Nc1cc(-c2[nH]c3c(c2Nc2ccccc2)C(=O)CCC3)ccn1)c1ccncc1 [Example 268, N-{4-[4-oxo-3-(phenylamino)-4,5,6,7-tetrahydro-1H-indol-2-yl]pyridin-2-yl}pyridine-4-carboxamide]
53.5	O=C1CCCc2[nH]c(-c3ccncc3OCC(F)F)c(Nc3ccccc3)c21 [Example 457, 2-[3-(2,2-difluoroethoxy)pyridin-4-yl]-3-(phenylamino)-1,5,6,7-tetrahydro-4H-indol-4-one]
59.7	CC1(C)CC(=O)c2c([nH]c(-c3ccnc(NC(=O)[C@H]4C[C@H]4F)c3)c2Nc2ccccc2)C1 (racemic) [Example 257, (R,R)—N-{4-[6,6-dimethyl-4-oxo-3-(phenylamino)-4,5,6,7-tetrahydro-1H-indol-2-yl]pyridin-2-yl}-2-fluorocyclopropanecarboxamide]
19.9	COC(=O)Nc1cc(-c2[nH]c3c(c2Nc2cccc(F)c2)C(=O)CCC3)ccn1 [Example 312, methyl (4-{3-[(3-fluorophenyl)amino]-4-oxo-4,5,6,7-tetrahydro-1H-indol-2-yl}pyridin-2-yl)carbamate]
2560	O=C1CCCc2[nH]c(-c3ccnc(NCCCc4ccccc4)c3)c(Nc3ccccc3)c21 [Example 490, 3-(phenylamino)-2-{2-[(3-phenylpropyl)amino]pyridin-4-yl}-1,5,6,7-tetrahydro-4H-indol-4-one]
437	CC(C)(C)NC(=O)Nc1cc(-c2[nH]c3c(c2Nc2ccccc2)C(=O)CCC3)ccn1 [Example 380, 1-tert-butyl-3-{4-[4-oxo-3-(phenylamino)-4,5,6,7-tetrahydro-1H-indol-2-yl]pyridin-2-yl}urea]
13.8	O=C(Nc1cc(-c2[nH]c3c(c2Nc2ccccc2)C(=O)CCC3)ccn1)c1ccc(F)cc1 [Example 266, 4-fluoro-N-{4-[4-oxo-3-(phenylamino)-4,5,6,7-tetrahydro-1H-indol-2-yl]pyridin-2-yl}benzamide]
18.2	O=C(COc1ccc(F)cc1)Nc1cc(-c2[nH]c3c(c2Nc2ccccc2)C(=O)CCC3)ccn1 [Example 462, N-[4-(3-anilino-4-oxo-4,5,6,7-tetrahydro-1H-indol-2-yl)pyridin-2-yl]-2-(4-fluorophenoxy)acetamide]
8.93	CC(C)(C)n1cc(C(=O)Nc2cc(-c3[nH]c4c(c3Nc3ccccc3)C(=O)CCC4)ccn2)cn1 [Example 448, 1-tert-butyl-N-{4-[4-oxo-3-(phenylamino)-4,5,6,7-tetrahydro-1H-indol-2-yl]pyridin-2-yl}-1H-pyrazole-4-carboxamide]
291	O=C1CCCc2[nH]c(-c3ccnc(NCc4ccncc4)c3)c(Nc3ccccc3)c21 [Example 367, 3-(phenylamino)-2-{2-[(pyridin-4-ylmethyl)amino]pyridin-4-yl}-1,5,6,7-tetrahydro-4H-indol-4-one]
509	C#Cc1cccc(Nc2c(-c3ccncc3)[nH]c3c2C(=O)CC(C)(C)C3)c1 [Example 428, 3-[(3-ethynylphenyl)amino]-6,6-dimethyl-2-(pyridin-4-yl)-1,5,6,7-tetrahydro-4H-indol-4-one]
193	CC1(C)CC(=O)c2c([nH]c(-c3ccnc(NCc4cncs4)c3)c2Nc2ccccc2)C1 [Example 508, 6,6-dimethyl-3-(phenylamino)-2-{2-[(1,3-thiazol-5-ylmethyl)amino]pyridin-4-yl}-1,5,6,7-tetrahydro-4H-indol-4-one]
907	O=C1CCCc2[nH]c(-c3ccnc(NCCCCc4ccccc4)c3)c(Nc3ccccc3)c21 [Example 484, 3-(phenylamino)-2-{2-[(4-phenylbutyl)amino]pyridin-4-yl}-1,5,6,7-tetrahydro-4H-indol-4-one]
157	CC1(C)CC(=O)c2c([nH]c(-c3ccnc(C(F)F)c3)c2Nc2ccccc2)C1 [Example 400, 2-[2-(difluoromethyl)pyridin-4-yl]-6,6-dimethyl-3-(phenylamino)-1,5,6,7-tetrahydro-4H-indol-4-one]
6.42	CC1(C)CC(=O)c2c([nH]c(-c3ccncc3OCC(F)F)c2Nc2ccccc2)C1 [Example 408, 2-[3-(2,2-difluoroethoxy)pyridin-4-yl]-6,6-dimethyl-3-(phenylamino)-1,5,6,7-tetrahydro-4H-indol-4-one]
5.84	CC1(C)CC(=O)c2c([nH]c(-c3ccncc3)c2Nc2ccc(F)cc2CO)C1 [Example 485, 3-{[4-fluoro-2-(hydroxymethyl)phenyl]amino}-6,6-dimethyl-2-(pyridin-4-yl)-1,5,6,7-tetrahydro-4H-indol-4-one]
6.88	CC(=O)Nc1cc(-c2[nH]c3c(c2Nc2ccccc2)C(=O)CC(CF)C3)ccn1 (centres unmarked) [Example 461, N-{4-[6-(fluoromethyl)-4-oxo-3-(phenylamino)-4,5,6,7-tetrahydro-1H-indol-2-yl]pyridin-2-yl}acetamide]
6.3	CC1(C)CC(=O)c2c([nH]c(-c3ccnc(NC(=O)c4cncs4)c3)c2Nc2ccccc2)C1 [Example 480, N-{4-[6,6-dimethyl-4-oxo-3-(phenylamino)-4,5,6,7-tetrahydro-1H-indol-2-yl]pyridin-2-yl}-1,3-thiazole-5-carboxamide]
